The values that follow come from publication PMC11359932 (Viruses, 2024).

Where two headings read alike, the source gives them in different places.

Data set [1] has as its target T1, SARS-CoV-2 PLpro (Severe acute respiratory syndrome coronavirus 2, UniProt P0DTD1). Put plainly: biochemical. The settings on record: for Fold increase of IC50 in presence of Tween-20: 0.01% Tween-20 versus none; for IC50: CIY substrate.
A short description of data set [2]: Cellular cytotoxicity (CCK-8 / WST assay). In kind it is cell-based. The settings on record: African green monkey, Vero CCL81 cells; 48 h treatment.
Data set [3] deals with SARS-CoV-2 WA1 strain. Put plainly: Antiviral immunofluorescence assay (IFA) in Vero-E6 cells, WA1 strain. In kind it is cell-based. The conditions noted are these: Severe acute respiratory syndrome coronavirus 2, Vero C1008, MOI 0.01, Vero-E6 cells.
For data set [4], the system named is SARS-CoV-2 Omicron (B.1.1.529). Put plainly: microbe, parasite or virus in culture. Type of data set: cell-based.
Data set [5] concerns SARS-CoV-2 WA1 strain. Put plainly: Antiviral plaque reduction assay (PRA) in Vero-E6 cells. The conditions noted are these: read-out: EC50-PRA, MOI 0.01, Vero-E6 cells. A general note: Plaque reduction counts the foci of infection that form in a cell layer.
Data set [6] concerns the target T1, SARS-CoV-2 PLpro. Put plainly: Inhibition mechanism, Lineweaver-Burk plot with peptide-AMC substrate. Type of data set: biochemical. The conditions noted are these: 40 nM PLpro.
In data set [7] the target is T1, SARS-CoV-2 PLpro. Put plainly: Surface plasmon resonance binding to immobilized PLpro. The settings on record: SPR, buffer with Tween-20, 25 °C. Background: Surface plasmon resonance follows binding to a sensor surface in real time, without labels.
The next data set addresses USP25 (Homo sapiens, UniProt Q9UHP3). Put plainly: USP25 selectivity FRET assay (CFP-ubiquitin-YFP substrate). In kind it is biochemical. The conditions noted are these: for SI (selectivity index): IC50-USP25/IC50-PLpro.
The next data set concerns SARS-CoV-2. Further details: method as in earlier work. The settings on record: viral loads and survival rates; cited from earlier work.
The test system of a further data set is SARS-CoV PLpro. The settings on record: read-out: IC50 against SARS-CoV PLpro; cited from earlier work.
[8] abbreviates: IC50-PLpro-tw, with 0.01% Tween-20.

A word on the IC50: it is the midpoint of a concentration-inhibition curve. Usually CC50 stands for the concentration giving 50% cytotoxicity. Low values mean greater toxicity to the cells, high ones lower toxicity to the cells. As usually defined, the EC50 is the midpoint of the concentration-response curve. The term Kd denotes the equilibrium constant for the complex coming apart. A lower Kd goes with tighter binding.

Chain of USP25 (Q9UHP3 157-706): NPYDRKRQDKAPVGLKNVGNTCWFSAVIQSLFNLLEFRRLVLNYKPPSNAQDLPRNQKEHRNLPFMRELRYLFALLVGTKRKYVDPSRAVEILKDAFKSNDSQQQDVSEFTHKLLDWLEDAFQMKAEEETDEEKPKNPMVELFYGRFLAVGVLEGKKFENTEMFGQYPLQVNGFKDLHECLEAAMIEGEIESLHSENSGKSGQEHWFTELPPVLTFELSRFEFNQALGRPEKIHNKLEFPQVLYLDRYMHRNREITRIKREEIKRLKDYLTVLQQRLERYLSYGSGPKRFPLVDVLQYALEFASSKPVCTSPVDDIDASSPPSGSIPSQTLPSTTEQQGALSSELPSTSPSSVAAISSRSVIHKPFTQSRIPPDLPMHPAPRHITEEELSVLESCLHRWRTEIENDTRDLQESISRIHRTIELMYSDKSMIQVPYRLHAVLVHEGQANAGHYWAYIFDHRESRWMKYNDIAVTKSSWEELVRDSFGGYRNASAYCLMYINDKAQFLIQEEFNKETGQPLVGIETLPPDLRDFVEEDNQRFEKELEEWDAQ

On to `COC(=O)C1(C)Cc2cc(OC(C)=O)c(OC(C)=O)cc2N1` (stereo not shown) [NSC341956], for which the “Fold increase of IC50 in presence of Tween-20” value at SARS-CoV-2 PLpro [1] is listed as more than 16 fold. Besides, the IC50 on SARS-CoV-2 PLpro [1] (with 0.01% Tween-20, read-out: IC50-PLpro-tw) is more than 200 µM; on SARS-CoV-2 PLpro [1] (without Tween-20, read-out: IC50-PLpro), 12.4 µM.

Compound `COC(=O)c1cc2c(n1S(=O)(=O)c1ccc(C)cc1)C(=O)C(=O)c1[nH]cc(C(=O)OCc3ccccc3)c1-2` [NSC679525] registered a half-maximal cytotoxic concentration (CC50) at 48 h in [2] of 18.6 µM. The IC50 turned out to be 16.8 µM against SARS-CoV-2 PLpro [1] (IC50, 5 Min Incubation, 5 min preincubation with the enzyme); 10.2 µM against SARS-CoV-2 PLpro [1] (IC50, 60 Min Incubation, 60 min preincubation with the enzyme); 6 µM against SARS-CoV-2 PLpro [1] (IC50-PLpro, without Tween-20); 11 µM against SARS-CoV-2 PLpro [1] (setting [8]); 41 µM on USP25 (CFP-ubiquitin-YFP substrate, without Tween-20). The EC50 is 2.8 µM with SARS-CoV-2 WA1 strain [3]; 5.42 µM in data set [4] (Severe acute respiratory syndrome coronavirus 2, Vero C1008, read-out: EC50-Omi); 5.4 µM in data set [4] (read-out: EC50-Omi); 0.4 µM in the data set with SARS-CoV-2 WA1 strain [5]. The “Putative Mode of Action (mechanism of inhibition)” value on SARS-CoV-2 PLpro [6] was “Non-competitive”. The Kd at SARS-CoV-2 PLpro [7] is 4.1 µM. Also, the “SI (selectivity index)” value on USP25 was more than 4.7; on USP25 (listed as 679525) it was 6.8.

For the compound `CCn1ccc(-c2cc(-c3cnn(C)c3)cc([C@@H](C)NC(=O)c3cc(OCCN(C)C)ccc3C)c2)n1` [Jun12682], the “Efficacy in mouse model infected with SARS-CoV-2” value in the data set with SARS-CoV-2 was “efficacy in reducing viral loads and enhancing survival rates”.

As to `Cc1ccc(N)cc1C(=O)N[C@H](C)c1cccc2ccccc12` [GRL0617], the concentration for half-maximal inhibition (IC50) in the data set on SARS-CoV PLpro is […].

In the case of `CN1CCN(c2ccc([N+](=O)[O-])c3no[n+]([O-])c23)CC1` [NSC207895], on SARS-CoV-2 PLpro [1], the “Fold increase of IC50 in presence of Tween-20” value was “more than 5 fold”. Also, the IC50 was 0.9 µM against SARS-CoV-2 PLpro [1] (IC50-PLpro, without Tween-20) and 5 µM against SARS-CoV-2 PLpro [1] (setting [8]).
